Results published in publication PMC5513037, “Examining the influence of specificity ligands and ATP-competitive ligands on the overall effectiveness of bivalent kinase inhibitors” (Proteome Science, 2017).

What was measured:
Test in all cases: KAM-matrix competition in K562 lysate;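 as to 0.001 uM KAM: median log10 fold change of treatment over DMSO control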;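 as to 0.01 uM KAM: median log10 fold change of treatment over DMSO control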;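 as to 0.1 uM KAM: median log10 fold change of treatment over DMSO control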;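 as to 1 uM KAM: median log10 fold change of treatment over DMSO control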;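 as to 10 uM KAM: median log10 fold change of treatment over DMSO control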
Type in all cases: binding
PDIK1L = molecular target: T1, PDIK1L (Homo sapiens, UniProt Q8N165)
T1 construct: endogenous in cells; host or cells: K562
Description: (§1) Supplement 12953_2017_125_MOESM1_ESM.zip/MS_Supp Info.xlsx, sheet "KAM" | column: 10 uM KAM; 1 uM KAM; 0.1 uM KAM; 0.01 uM KAM; 0.001 uM KAM; RB50

TBK1 = molecular target: T2, TBK1 (Homo sapiens, UniProt Q9UHD2)
T2 construct: endogenous in cells; host or cells: K562
T2 sequence (Q9UHD2 1-729): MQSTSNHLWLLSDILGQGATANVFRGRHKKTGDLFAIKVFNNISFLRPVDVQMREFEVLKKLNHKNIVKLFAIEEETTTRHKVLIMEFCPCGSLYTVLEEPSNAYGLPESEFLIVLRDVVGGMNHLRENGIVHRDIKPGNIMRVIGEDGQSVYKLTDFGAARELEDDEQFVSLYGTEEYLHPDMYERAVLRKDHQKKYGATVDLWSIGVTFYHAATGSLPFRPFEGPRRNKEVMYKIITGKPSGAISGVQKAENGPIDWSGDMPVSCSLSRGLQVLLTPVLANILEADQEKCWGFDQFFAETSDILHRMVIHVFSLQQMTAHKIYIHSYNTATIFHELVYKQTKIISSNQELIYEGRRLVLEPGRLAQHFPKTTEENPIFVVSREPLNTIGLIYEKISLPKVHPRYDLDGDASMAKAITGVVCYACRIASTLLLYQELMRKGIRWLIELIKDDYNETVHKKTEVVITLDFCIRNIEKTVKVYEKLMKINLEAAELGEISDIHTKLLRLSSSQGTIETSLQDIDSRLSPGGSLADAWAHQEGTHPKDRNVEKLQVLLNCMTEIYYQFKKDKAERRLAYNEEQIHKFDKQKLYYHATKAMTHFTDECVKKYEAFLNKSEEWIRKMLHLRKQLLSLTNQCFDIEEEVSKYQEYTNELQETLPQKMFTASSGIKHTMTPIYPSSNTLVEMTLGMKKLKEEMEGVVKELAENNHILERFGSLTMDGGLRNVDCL
Description: as §1

FLT1 = molecular target: T3, FLT1 (Homo sapiens, UniProt P17948);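 as to 0.001 uM KAM: median log10 fold change of treatment over DMSO control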;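 as to 0.01 uM KAM: median log10 fold change of treatment over DMSO control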;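 as to 0.1 uM KAM: median log10 fold change of treatment over DMSO control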;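 as to 1 uM KAM: median log10 fold change of treatment over DMSO control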;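 as to 10 uM KAM: median log10 fold change of treatment over DMSO control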
T3 construct: endogenous in cells; host or cells: K562
Description: as §1

PAK6 = molecular target: T4, PAK6 (Homo sapiens, UniProt Q9NQU5)
T4 construct: endogenous in cells; host or cells: K562
Description: as §1

MAP4K4 = molecular target: T5, MAP4K4 (Homo sapiens, UniProt O95819);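 as to 0.001 uM KAM: median log10 fold change of treatment over DMSO control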;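 as to 0.01 uM KAM: median log10 fold change of treatment over DMSO control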;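 as to 0.1 uM KAM: median log10 fold change of treatment over DMSO control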;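 as to 1 uM KAM: median log10 fold change of treatment over DMSO control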;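 as to 10 uM KAM: median log10 fold change of treatment over DMSO control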
T5 construct: endogenous in cells; host or cells: K562
Description: as §1

PRKACG = molecular target: T6, PRKACG (Homo sapiens, UniProt P22612);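 as to 0.001 uM KAM: median log10 fold change of treatment over DMSO control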;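 as to 0.01 uM KAM: median log10 fold change of treatment over DMSO control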;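 as to 0.1 uM KAM: median log10 fold change of treatment over DMSO control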;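 as to 1 uM KAM: median log10 fold change of treatment over DMSO control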;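 as to 10 uM KAM: median log10 fold change of treatment over DMSO control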
T6 construct: endogenous in cells; host or cells: K562
Description: as §1

CDK14 = molecular target: T7, CDK14 (Homo sapiens, UniProt O94921)
T7 construct: endogenous in cells; host or cells: K562
Description: as §1

CHEK1 = molecular target: T8, CHEK1 (Homo sapiens, UniProt O14757)
T8 construct: endogenous in cells; host or cells: K562
T8 sequence (O14757 1-476): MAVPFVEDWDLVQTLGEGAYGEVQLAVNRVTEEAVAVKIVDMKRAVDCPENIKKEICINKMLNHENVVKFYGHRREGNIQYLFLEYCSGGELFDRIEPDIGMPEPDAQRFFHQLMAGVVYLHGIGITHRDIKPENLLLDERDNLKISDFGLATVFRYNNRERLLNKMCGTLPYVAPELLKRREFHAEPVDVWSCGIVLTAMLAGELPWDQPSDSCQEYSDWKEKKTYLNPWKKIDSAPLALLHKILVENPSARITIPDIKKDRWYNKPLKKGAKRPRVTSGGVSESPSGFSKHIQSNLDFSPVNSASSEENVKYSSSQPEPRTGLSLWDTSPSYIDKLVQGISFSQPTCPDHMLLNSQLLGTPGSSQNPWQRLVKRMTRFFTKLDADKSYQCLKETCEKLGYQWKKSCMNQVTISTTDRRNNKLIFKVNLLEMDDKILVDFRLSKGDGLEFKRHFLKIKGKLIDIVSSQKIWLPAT
Description: as §1

TLK2 = molecular target: T9, TLK2 (Homo sapiens, UniProt Q86UE8);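 as to 0.001 uM KAM: median log10 fold change of treatment over DMSO control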;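 as to 0.01 uM KAM: median log10 fold change of treatment over DMSO control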;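 as to 0.1 uM KAM: median log10 fold change of treatment over DMSO control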;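 as to 1 uM KAM: median log10 fold change of treatment over DMSO control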;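 as to 10 uM KAM: median log10 fold change of treatment over DMSO control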
T9 construct: endogenous in cells; host or cells: K562
Description: as §1

LYN = molecular target: T10, LYN (Homo sapiens, UniProt P07948)
T10 construct: endogenous in cells; host or cells: K562
Description: as §1

PKN3 = molecular target: T11, PKN3 (Homo sapiens, UniProt Q6P5Z2);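 as to 0.001 uM KAM: median log10 fold change of treatment over DMSO control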;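 as to 0.01 uM KAM: median log10 fold change of treatment over DMSO control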;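 as to 0.1 uM KAM: median log10 fold change of treatment over DMSO control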;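 as to 1 uM KAM: median log10 fold change of treatment over DMSO control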;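 as to 10 uM KAM: median log10 fold change of treatment over DMSO control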
T11 construct: endogenous in cells; host or cells: K562
Description: as §1

[1] = read-out: RB50 (the source's name)
[2] = KAM 0.001-10 uM, read-out: RB50 (the source's name)

T6 sequence (P22612 whole entry): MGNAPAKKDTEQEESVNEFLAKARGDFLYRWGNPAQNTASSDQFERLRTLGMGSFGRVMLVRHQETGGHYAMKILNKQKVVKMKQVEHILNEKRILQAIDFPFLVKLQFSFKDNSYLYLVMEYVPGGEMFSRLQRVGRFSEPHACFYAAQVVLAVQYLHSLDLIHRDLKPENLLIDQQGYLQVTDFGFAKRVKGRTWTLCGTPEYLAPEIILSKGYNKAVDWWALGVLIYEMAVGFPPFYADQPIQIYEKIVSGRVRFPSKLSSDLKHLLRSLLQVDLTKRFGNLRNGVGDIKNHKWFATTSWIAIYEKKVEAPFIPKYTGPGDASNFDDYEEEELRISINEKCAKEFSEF
T7 sequence (O94921 whole entry): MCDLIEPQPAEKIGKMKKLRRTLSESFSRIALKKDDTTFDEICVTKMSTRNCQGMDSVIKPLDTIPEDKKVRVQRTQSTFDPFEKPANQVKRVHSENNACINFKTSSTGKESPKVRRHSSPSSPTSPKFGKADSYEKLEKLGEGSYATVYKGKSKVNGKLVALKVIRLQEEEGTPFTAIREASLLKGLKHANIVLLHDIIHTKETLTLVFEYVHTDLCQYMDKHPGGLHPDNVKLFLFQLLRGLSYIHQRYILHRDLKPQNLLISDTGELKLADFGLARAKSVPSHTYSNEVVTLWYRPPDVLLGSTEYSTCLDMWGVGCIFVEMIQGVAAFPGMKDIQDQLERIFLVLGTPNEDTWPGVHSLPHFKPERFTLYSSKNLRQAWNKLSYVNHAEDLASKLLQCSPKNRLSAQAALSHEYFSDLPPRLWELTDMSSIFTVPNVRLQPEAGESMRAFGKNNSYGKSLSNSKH
T4 sequence (Q9NQU5 whole entry): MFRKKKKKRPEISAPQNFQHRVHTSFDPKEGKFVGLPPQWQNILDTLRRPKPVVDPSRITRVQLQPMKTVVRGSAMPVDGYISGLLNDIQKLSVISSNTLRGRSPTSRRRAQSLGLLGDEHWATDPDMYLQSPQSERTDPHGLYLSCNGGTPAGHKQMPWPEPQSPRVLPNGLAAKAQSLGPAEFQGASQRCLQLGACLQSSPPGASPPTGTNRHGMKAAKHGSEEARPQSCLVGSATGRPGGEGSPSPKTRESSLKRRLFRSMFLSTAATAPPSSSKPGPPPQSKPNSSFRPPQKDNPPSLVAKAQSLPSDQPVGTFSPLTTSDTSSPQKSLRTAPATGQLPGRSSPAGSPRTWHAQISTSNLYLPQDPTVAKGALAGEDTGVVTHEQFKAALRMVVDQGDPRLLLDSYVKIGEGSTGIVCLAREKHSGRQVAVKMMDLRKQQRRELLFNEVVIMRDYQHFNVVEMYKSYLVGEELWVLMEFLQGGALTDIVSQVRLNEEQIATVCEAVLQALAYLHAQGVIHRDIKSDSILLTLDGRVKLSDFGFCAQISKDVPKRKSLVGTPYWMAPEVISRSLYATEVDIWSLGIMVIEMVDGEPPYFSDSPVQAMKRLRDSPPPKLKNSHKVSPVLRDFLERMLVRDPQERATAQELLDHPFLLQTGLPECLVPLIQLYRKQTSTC
T5 sequence (O95819 whole entry): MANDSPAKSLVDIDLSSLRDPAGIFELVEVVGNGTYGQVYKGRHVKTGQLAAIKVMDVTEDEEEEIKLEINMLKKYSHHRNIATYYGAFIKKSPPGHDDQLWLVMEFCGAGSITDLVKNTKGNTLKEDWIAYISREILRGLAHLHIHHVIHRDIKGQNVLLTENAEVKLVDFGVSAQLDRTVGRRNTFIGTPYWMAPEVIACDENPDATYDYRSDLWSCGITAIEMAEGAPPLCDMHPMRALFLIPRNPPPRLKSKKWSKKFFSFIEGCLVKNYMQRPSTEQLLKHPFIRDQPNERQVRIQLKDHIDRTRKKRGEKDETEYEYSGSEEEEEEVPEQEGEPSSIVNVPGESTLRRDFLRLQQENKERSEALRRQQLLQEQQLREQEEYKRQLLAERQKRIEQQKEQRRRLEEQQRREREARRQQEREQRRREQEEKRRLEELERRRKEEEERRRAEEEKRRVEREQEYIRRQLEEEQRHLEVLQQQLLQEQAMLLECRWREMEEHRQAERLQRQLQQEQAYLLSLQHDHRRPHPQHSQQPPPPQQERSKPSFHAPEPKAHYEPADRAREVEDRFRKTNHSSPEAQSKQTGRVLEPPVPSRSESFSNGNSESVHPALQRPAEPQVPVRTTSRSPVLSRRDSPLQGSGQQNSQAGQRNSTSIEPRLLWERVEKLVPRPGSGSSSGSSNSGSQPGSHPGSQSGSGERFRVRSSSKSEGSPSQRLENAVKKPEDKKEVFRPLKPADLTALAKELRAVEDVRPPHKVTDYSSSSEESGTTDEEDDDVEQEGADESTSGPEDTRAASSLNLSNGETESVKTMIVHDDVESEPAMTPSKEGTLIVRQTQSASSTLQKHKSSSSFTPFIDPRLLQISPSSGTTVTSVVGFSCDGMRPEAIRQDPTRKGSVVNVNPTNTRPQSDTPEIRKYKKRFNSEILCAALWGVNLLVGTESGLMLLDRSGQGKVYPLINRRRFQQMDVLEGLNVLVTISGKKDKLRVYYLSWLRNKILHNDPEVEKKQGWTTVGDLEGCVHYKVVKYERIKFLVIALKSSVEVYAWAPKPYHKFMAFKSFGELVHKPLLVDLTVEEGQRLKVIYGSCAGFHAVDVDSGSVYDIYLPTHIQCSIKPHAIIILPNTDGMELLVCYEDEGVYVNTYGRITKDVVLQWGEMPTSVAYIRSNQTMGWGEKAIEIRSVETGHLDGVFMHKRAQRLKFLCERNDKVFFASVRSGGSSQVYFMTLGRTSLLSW
T9 sequence (Q86UE8 whole entry): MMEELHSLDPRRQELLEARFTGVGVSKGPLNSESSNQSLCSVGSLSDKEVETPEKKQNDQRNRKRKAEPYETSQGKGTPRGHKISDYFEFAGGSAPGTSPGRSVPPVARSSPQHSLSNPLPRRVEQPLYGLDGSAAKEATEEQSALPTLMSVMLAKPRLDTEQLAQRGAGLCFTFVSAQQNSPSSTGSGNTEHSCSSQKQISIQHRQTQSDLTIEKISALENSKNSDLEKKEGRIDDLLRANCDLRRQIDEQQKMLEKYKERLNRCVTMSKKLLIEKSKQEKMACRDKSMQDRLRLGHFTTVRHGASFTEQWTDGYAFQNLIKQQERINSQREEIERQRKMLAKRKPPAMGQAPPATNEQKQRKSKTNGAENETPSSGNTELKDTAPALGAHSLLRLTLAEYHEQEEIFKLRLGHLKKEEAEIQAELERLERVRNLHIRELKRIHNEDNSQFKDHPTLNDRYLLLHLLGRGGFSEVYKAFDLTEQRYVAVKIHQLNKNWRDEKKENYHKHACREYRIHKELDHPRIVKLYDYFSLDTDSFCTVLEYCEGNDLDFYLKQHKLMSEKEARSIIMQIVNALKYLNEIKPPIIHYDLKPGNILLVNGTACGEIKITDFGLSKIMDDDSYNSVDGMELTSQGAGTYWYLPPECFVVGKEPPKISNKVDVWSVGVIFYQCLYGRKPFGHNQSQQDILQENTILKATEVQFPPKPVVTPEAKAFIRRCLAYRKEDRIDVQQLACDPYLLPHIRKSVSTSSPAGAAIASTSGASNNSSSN
T3 sequence (P17948 27-1338): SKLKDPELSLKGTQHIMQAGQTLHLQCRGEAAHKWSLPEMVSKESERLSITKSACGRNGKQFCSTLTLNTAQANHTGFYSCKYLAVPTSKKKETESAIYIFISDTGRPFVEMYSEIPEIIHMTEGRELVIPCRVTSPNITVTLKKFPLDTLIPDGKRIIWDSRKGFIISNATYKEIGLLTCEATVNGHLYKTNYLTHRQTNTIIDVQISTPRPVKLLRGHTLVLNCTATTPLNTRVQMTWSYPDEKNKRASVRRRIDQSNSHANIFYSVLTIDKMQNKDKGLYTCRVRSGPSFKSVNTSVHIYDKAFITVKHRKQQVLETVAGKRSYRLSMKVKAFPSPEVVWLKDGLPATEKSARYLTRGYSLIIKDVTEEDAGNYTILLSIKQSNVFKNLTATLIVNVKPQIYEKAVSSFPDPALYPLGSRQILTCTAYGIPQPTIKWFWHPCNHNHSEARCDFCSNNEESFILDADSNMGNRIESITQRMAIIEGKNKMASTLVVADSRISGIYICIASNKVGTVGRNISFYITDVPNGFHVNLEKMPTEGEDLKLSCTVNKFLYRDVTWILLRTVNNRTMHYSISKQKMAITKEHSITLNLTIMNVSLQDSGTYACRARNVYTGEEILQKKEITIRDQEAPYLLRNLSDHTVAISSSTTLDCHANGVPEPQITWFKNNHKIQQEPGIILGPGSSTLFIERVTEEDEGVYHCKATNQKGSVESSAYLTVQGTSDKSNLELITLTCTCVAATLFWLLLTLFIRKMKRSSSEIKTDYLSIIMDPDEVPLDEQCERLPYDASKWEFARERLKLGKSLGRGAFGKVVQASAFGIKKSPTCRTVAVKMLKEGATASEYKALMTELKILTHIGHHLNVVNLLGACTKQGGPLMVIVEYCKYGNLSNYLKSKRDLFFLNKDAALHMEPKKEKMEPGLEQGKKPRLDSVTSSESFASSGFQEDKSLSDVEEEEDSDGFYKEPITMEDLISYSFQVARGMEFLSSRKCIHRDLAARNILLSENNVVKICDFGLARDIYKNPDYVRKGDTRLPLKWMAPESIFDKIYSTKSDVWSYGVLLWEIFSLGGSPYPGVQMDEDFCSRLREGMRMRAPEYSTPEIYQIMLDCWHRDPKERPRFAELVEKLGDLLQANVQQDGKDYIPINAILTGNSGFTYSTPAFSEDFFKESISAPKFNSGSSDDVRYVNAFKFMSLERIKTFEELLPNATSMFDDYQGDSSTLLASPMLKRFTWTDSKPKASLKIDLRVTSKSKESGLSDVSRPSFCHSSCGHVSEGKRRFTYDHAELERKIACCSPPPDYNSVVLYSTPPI

N#CCc1ccc(Nc2nc(NCCCN)cc(Nc3cc(C4CC4)[nH]n3)n2)cc1 [KAM]
median Log10 fold change (PDIK1L; 0.001 uM KAM): -0.01583
median Log10 fold change (PDIK1L; 0.01 uM KAM): -0.03169
median Log10 fold change (PDIK1L; 0.1 uM KAM): -0.1434
median Log10 fold change (PDIK1L; 1 uM KAM): -0.3076
median Log10 fold change (PDIK1L; 10 uM KAM): -0.3596
IC50 (PDIK1L; [1]): 1.31 µM
median Log10 fold change (TBK1; 0.001 uM KAM): -0.0003533
median Log10 fold change (TBK1; 0.01 uM KAM): 0.01133
median Log10 fold change (TBK1; 0.1 uM KAM): -0.1059
median Log10 fold change (TBK1; 1 uM KAM): -0.5242
median Log10 fold change (TBK1; 10 uM KAM): -0.6823
IC50 (TBK1; [1]): 0.452 µM
IC50 (FLT1; [2]): > 10 µM
0.001 uM KAM (FLT1; relative to 0 uM KAM = 0): -0.03836
0.01 uM KAM (FLT1; relative to 0 uM KAM = 0): 0.0203
0.1 uM KAM (FLT1; relative to 0 uM KAM = 0): -0.001012
1 uM KAM (FLT1; relative to 0 uM KAM = 0): -0.1879
10 uM KAM (FLT1; relative to 0 uM KAM = 0): -0.2168
median Log10 fold change (PAK6; 0.001 uM KAM): -0.09371
median Log10 fold change (PAK6; 0.01 uM KAM): 0.03145
median Log10 fold change (PAK6; 0.1 uM KAM): -0.196
median Log10 fold change (PAK6; 1 uM KAM): -0.3777
median Log10 fold change (PAK6; 10 uM KAM): -0.6349
IC50 (PAK6; [1]): 0.519 µM
IC50 (MAP4K4; [2]): > 10 µM
0.001 uM KAM (MAP4K4; relative to 0 uM KAM = 0): -0.04181
0.01 uM KAM (MAP4K4; relative to 0 uM KAM = 0): -0.007384
0.1 uM KAM (MAP4K4; relative to 0 uM KAM = 0): -0.1078
1 uM KAM (MAP4K4; relative to 0 uM KAM = 0): -0.1201
10 uM KAM (MAP4K4; relative to 0 uM KAM = 0): -0.1434
IC50 (PRKACG; [2]): > 10 µM
0.001 uM KAM (PRKACG; relative to 0 uM KAM = 0): -0.03855
0.01 uM KAM (PRKACG; relative to 0 uM KAM = 0): 0.1471
0.1 uM KAM (PRKACG; relative to 0 uM KAM = 0): 0.178
1 uM KAM (PRKACG; relative to 0 uM KAM = 0): 0.2462
10 uM KAM (PRKACG; relative to 0 uM KAM = 0): 0.202
median Log10 fold change (CDK14; 0.001 uM KAM): 0.09538
median Log10 fold change (CDK14; 0.01 uM KAM): 0.03255
median Log10 fold change (CDK14; 0.1 uM KAM): -0.148
median Log10 fold change (CDK14; 1 uM KAM): -0.2642
median Log10 fold change (CDK14; 10 uM KAM): -0.4049
IC50 (CDK14; [1]): 1.66 µM
median Log10 fold change (CHEK1; 0.001 uM KAM): -0.01146
median Log10 fold change (CHEK1; 0.01 uM KAM): -0.009061
median Log10 fold change (CHEK1; 0.1 uM KAM): -0.1025
median Log10 fold change (CHEK1; 1 uM KAM): -0.2953
median Log10 fold change (CHEK1; 10 uM KAM): -0.4632
IC50 (CHEK1; [1]): 1.29 µM
IC50 (TLK2; [2]): > 10 µM
0.001 uM KAM (TLK2; relative to 0 uM KAM = 0): -0.002954
0.01 uM KAM (TLK2; relative to 0 uM KAM = 0): -0.03195
0.1 uM KAM (TLK2; relative to 0 uM KAM = 0): -0.07515
1 uM KAM (TLK2; relative to 0 uM KAM = 0): 0.001633
10 uM KAM (TLK2; relative to 0 uM KAM = 0): -0.09222
median Log10 fold change (LYN; 0.001 uM KAM): -0.01474
median Log10 fold change (LYN; 0.01 uM KAM): -0.009336
median Log10 fold change (LYN; 0.1 uM KAM): -0.1214
median Log10 fold change (LYN; 1 uM KAM): -0.4299
median Log10 fold change (LYN; 10 uM KAM): -0.513
IC50 (LYN; [1]): 0.601 µM
IC50 (PKN3; [2]): > 10 µM
0.001 uM KAM (PKN3; relative to 0 uM KAM = 0): 0.01928
0.01 uM KAM (PKN3; relative to 0 uM KAM = 0): 0.02728
0.1 uM KAM (PKN3; relative to 0 uM KAM = 0): -0.02092
1 uM KAM (PKN3; relative to 0 uM KAM = 0): -0.1078
10 uM KAM (PKN3; relative to 0 uM KAM = 0): -0.2223
